The values that follow are results of earlier work, collected in patent US20070191377A1, “Methods for treating blood disorders with nitric oxide donor compounds” (NitroMed, Inc., priority 2004, published 2007).

For `O=[N+]([O-])O[C@H]1CO[C@H]2[C@@H]1OC[C@H]2O[N+](=O)[O-]` [isosorbide dinitrate, 1,4,3,6-dianhydro-D-glucitol-2,5-dinitrate], the “solubility in organic solvents” value (organic solvents such as ethanol, ether and chloroform) was “freely soluble”. Further, the solubility in water result (water) is recorded as “sparingly soluble”.
